Each compound was assayed against human ENPP2 (Homo sapiens (Human), UniProt Q13822) (assay: Measurement of human ENPP2 inhibitory activity). Conditions: 1 μM test compound; 16:0-LPC substrate, 37° C., 24 hours; read-out: ENPP2 inhibition rate(%) (1 μM).
Format: biochemical
Procedure: 10 μL of a test compound solution (10% dimethyl sulfoxide) at each concentration and 40 μL of a 5 μg/mL human ENPP2 solution (buffer A: 100 mmol/L Tris-HCl (pH 9.0), 500 mmol/L NaCl, 5 mmol/L MgCl2, 0.05% Triton X-100) were mixed, 50 μL of a 2 mmol/L 16:0-lysophosphatidylcholine (LPC) solution (buffer A) was further added to react at 37° C. for 24 hours. Subsequently, to 10 μL of the reaction solution was added 90 μL of a measurement buffer (0.5 mmol/L aminoantipyrine, 0.3 mmol/L N-ethyl-N-(2-hydroxy-3-sulfopropyl)-3-methylaniline, 1 U/mL peroxidase, 3 U/mL choline oxidase, 100 mmol/L Tris-HCl (pH 8.5), 5 mmol/L CaCl2) to react at 37° C. for 20 minutes, and spectrophotometric determination was performed at 555 nm.
Using a standard curve, a choline production amount (enzyme activity) in each test compound was calculated, and the inhibitory activity rate of each test compound was calculated, wherein the enzyme activity in a positive control to which a test compound is not added, was a 0% inhibition rate, and the enzyme activity in a negative control to which a test compound and human ENPP2 are not added, were 100% inhibition. Further, concerning the present compounds shown in Table 3, an IC50 value was calculated from inhibitory activity rate at each concentration.

| inhibition at 1 µM [%] | SMILES |
| --- | --- |
| 59.3 | O=C(O)CCCC(=O)N1CCc2c(n(CCCc3ccccc3)c3ncccc23)C1 [Example 9(26), 5-oxo-5-[9-(3-phenylpropyl)-5,6,8,9-tetrahydro-7H-pyrido[4′,3′:4,5]pyrrolo[2,3-b]pyridin-7-yl]pentanoic acid] |
| 98 | O=C(CC12CCC(C(=O)O)(CC1)CC2)N1CCc2c(n(Cc3ccc(F)c(F)c3)c3ncccc23)C1 [Example 31(170), 4-{2-[9-(3,4-difluorobenzyl)-5,6,8,9-tetrahydro-7H-pyrido[4′,3′:4,5]pyrrolo[2,3-b]pyridin-7-yl]-2-oxoethyl}bicyclo[2.2.2]octane-1-carboxylic acid] |
| 76.6 | O=C(O)CCCCC(=O)N1CCc2c(n(CCOc3ccccc3)c3ncccc23)C1 [Example 9(28), 6-oxo-6-[9-(2-phenoxyethyl)-5,6,8,9-tetrahydro-7H-pyrido[4′,3′:4,5]pyrrolo[2,3-b]pyridin-7-yl]hexanoic acid] |
| 82.4 | O=C(O)CCCCC(=O)N1CCc2c(n(CCSc3ccccc3)c3ncccc23)C1 [Example 9(31), 6-oxo-6-{9-[2-(phenylthio)ethyl]-5,6,8,9-tetrahydro-7H-pyrido[4′,3′:4,5]pyrrolo[2,3-b]pyridin-7-yl}hexanoic acid] |
| 99 | O=C(CC12CCC(C(=O)O)(CC1)CC2)N1CCc2c(n(Cc3cc(F)cc(F)c3)c3ncccc23)C1 [Example 31(128), 4-{2-[9-(3,5-difluorobenzyl)-5,6,8,9-tetrahydro-7H-pyrido[4′,3′:4,5]pyrrolo[2,3-b]pyridin-7-yl]-2-oxoethyl}bicyclo[2.2.2]octane-1-carboxylic acid] |
| 99.3 | O=C(CC12CCC(C(=O)O)(CC1)C2)N1CCc2c(n(Cc3ccc(Cl)cc3)c3ncccc23)C1 [Example 31(189), 4-{2-[9-(4-chlorobenzyl)-5,6,8,9-tetrahydro-7H-pyrido[4′,3′:4,5]pyrrolo[2,3-b]pyridin-7-yl]-2-oxoethyl}bicyclo[2.2.1]heptane-1-carboxylic acid] |

Same assay, conditions: 16:0-LPC substrate, 37° C., 24 hours

| IC50 [nM] | SMILES |
| --- | --- |
| 34 | O=C(O)CCCCC(=O)N1CCc2c(n(CCCc3ccccc3)c3ccccc23)C1 [Example 3, 6-oxo-6-[9-(3-phenylpropyl)-1,3,4,9-tetrahydro-2H-beta-carbolin-2-yl]hexanoic acid] |
| 6.7 | CC(C)(CCCC(=O)N1CCc2c(n(Cc3ccc(F)cc3F)c3ncccc23)C1)C(=O)O [Example 12(97), 6-[9-(2,4-difluorobenzyl)-5,6,8,9-tetrahydro-7H-pyrido[4′,3′:4,5]pyrrolo[2,3-b]pyridin-7-yl]-2,2-dimethyl-6-oxohexanoic acid] |
| 5 | O=C(C[C@H]1CC[C@H](C(=O)O)CC1)N1CCc2c(n(Cc3ccc(Cl)cc3F)c3ncccc23)C1 [Example 31(24), trans-4-{2-[9-(4-chloro-2-fluorobenzyl)-5,6,8,9-tetrahydro-7H-pyrido[4′,3′:4,5]pyrrolo[2,3-b]pyridin-7-yl]-2-oxoethyl}cyclohexanecarboxylic acid] |
| 91 | O=C(O)CCCCC(=O)N1CCc2c(n(Cc3cccc(F)c3)c3ncccc23)C1 [Example 9, 6-[9-(3-fluorobenzyl)-5,6,8,9-tetrahydro-7H-pyrido[4′,3′:4,5]pyrrolo[2,3-b]pyridin-7-yl]-6-oxohexanoic acid] |
| 110 | O=C(O)C1CCCN(CC(=O)N2CCc3c(n(Cc4cccc(F)c4)c4ncccc34)C2)C1 (centres unmarked) [Example 35(2), 1-{2-[9-(3-fluorobenzyl)-5,6,8,9-tetrahydro-7H-pyrido[4′,3′:4,5]pyrrolo[2,3-b]pyridin-7-yl]-2-oxoethyl}-3-piperidinecarboxylic acid] |
| 9.6 | CC(C)(CCCC(=O)N1CCc2c(n(Cc3ccc(Cl)s3)c3ncccc23)C1)C(=O)O [Example 12(42), 6-{9-[(5-chloro-2-thienyl)methyl]-5,6,8,9-tetrahydro-7H-pyrido[4′,3′:4,5]pyrrolo[2,3-b]pyridin-7-yl}-2,2-dimethyl-6-oxohexanoic acid] |

The compounds below were run on SD male rat (assay: Measurement of urethra internal pressure in rat under anesthesia). Conditions: rat under urethane anesthesia; intravenous 0.03, 0.1, 0.3 mg/kg; FIG. 2.
Format: in vivo
Source text: A SD male rat (Crl: CD(SD), Charles River Laboratories Japan, Inc., 7-10 weeks old) was anesthetized by subcutaneous administration of 1.5 g/kg urethane at a back of a neck. After neck median incision, a jugular vein catheter for intravenous administration was inserted. A lower abdominal part was median incised, and a urethra was ligated at around pubis. A urethral catheter for measuring a urethra internal pressure, equipped with a collar at a tip and filled with a physiological saline was inserted into a urethra through an incised bladder top, and ligation-fixed at a bladder neck part. The urethral catheter was connected to a pressure transducer (manufactured by Nihon Kohden Corporation), and a urethra internal pressure was measured. […] A urethra internal pressure reduction rate (%) was calculated based on a urethra internal pressure after compound administration, wherein a value obtained by subtracting a postmortem baseline value (minimum value of urethra internal pressure for 10 minutes after administration of somnopentyl) from a urethra internal pressure value before compound administration (0 minute) was 100%.

| SMILES | urethra internal pressure |
| --- | --- |
| O=C(C[C@H]1CC[C@H](C(=O)O)CC1)N1CCc2c(n(Cc3ccc(Cl)cc3F)c3ncccc23)C1 [Example 31(24), trans-4-{2-[9-(4-chloro-2-fluorobenzyl)-5,6,8,9-tetrahydro-7H-pyrido[4′,3′:4,5]pyrrolo[2,3-b]pyridin-7-yl]-2-oxoethyl}cyclohexanecarboxylic acid] | significantly reduced a urethra internal pressure |

Same assay, conditions: rat under urethane anesthesia; intravenous 0.1, 0.3, 1.0 mg/kg; FIG. 1

| SMILES | urethra internal pressure |
| --- | --- |
| O=C(O)CCCCC(=O)N1CCc2c(n(CCCc3ccccc3)c3ccccc23)C1 [Example 3, 6-oxo-6-[9-(3-phenylpropyl)-1,3,4,9-tetrahydro-2H-beta-carbolin-2-yl]hexanoic acid] | significantly reduced a urethra internal pressure |
